From patent publication US11834458B2, “Anti-cancer nuclear hormone receptor-targeting compounds” (Nuvation Bio Inc., priority 2021, dated 2023)
Where two headings read alike, the source gives them in different places.

Legend:
AR = AR (Homo sapiens (Human), UniProt P10275, T878A); experiment: AR binding assay
Description: AR binding assay: To assess AR binding, test compound (top dose 10 μM, 4 fold serial dilution, 8 point dose response) and control (progesterone) were transferred to the assay plate. Cytosol from LnCaP cells was added to the plate, followed by addition of radiolabeled ^3H-R1881 at a final concentration of 1 nM. The plate was sealed, and the reaction was incubated at 300 rpm at 4° C. for 24 hrs. Radioligand absorption buffer (10 mM Tris-HCl, pH 7.4; 1.5 mM EDTA; 1 mM DTT; 0.25% charcoal; 0.0025% dextran) was then added to the plate, mixed, and incubated at 4° C. for 15 minutes. The plate was then centrifuged at 3000 rpm for 30 minutes at 4° C. The supernatant was transferred to the scint-tube and Tri-carb was used for scintillation counting. The data was analyzed using GraphPadPrism v5.0 and binding IC50 was determined as the concentration where 50% inhibition of radioligand binding was observed.

[1] = target: full-length androgen receptor (Homo sapiens (Human), UniProt P10275); experiment: AR antagonism assay; assay type: cell-based; conditions: HEK293 cells stably expressing full-length androgen receptor, testosterone 1 nM, 20 h; read-out: AR antagonism
Description: AR antagonism assay: To evaluate AR antagonist activity, test compound was added to the assay plate (top dose 10 μM, 3 fold serial dilution, 10 point dose response). HEK293 cells stably expressing the full-length androgen receptor were seeded at a density of 20,000 cells/well in the assay plate. The assay plate was then incubated at room temperature for 10 minutes and at 37° C., 5% CO2 for 20 minutes. Testosterone was added to the assay plate at 1 nM final concentration and the assay plate incubated at 37° C., 5% CO2 for 20 h. After the incubation period, Steady-glo was added to the assay plate and mixed at room temperature for 20 minutes on an orbital shaker, before reading out on the EnVision plate reader.

GR = GR (Homo sapiens (Human), UniProt P04150); experiment: GR binding assay; conditions: cytosol from IM-9 cells, 3H-Dexamethasone 1.5 nM, 4° C. 24 hrs
Description: GR binding assay: To assess GR binding, test compound (top dose 1 μM, 4 fold serial dilution, 8 point dose response) and control (dexamethasone) were transferred to the assay plate. Cytosol from IM-9 cells was added to the plate, followed by addition of radiolabeled ^3H-Dexamethasone at a final concentration of 1.5 nM. The plate was sealed, and the reaction was incubated at 300 rpm at 4° C. for 24 hrs. Radioligand absorption buffer (10 mM Tris-HCl, pH 7.4; 1.5 mM EDTA; 1 mM DTT; 0.25% charcoal; 0.0025% dextran) was then added to the plate, mixed, and incubated at 4° C. for 15 minutes. The plate was then centrifuged at […] for 30 minutes at 4° C. The supernatant was transferred to the scint-tube and Tri-carb was used for scintillation counting. The data was analyzed using GraphPadPrism v5.0 and binding IC50 was determined as the concentration where 50% inhibition of radioligand binding was observed.

[2] = target: ligand binding domain of the glucocorticoid receptor (Homo sapiens (Human), UniProt P04150); experiment: GR antagonism assay; assay type: cell-based; conditions: HEK293 cells stably expressing GR ligand binding domain, dexamethasone 1.5 nM, 20 h
Description: GR antagonism assay: To evaluate GR antagonist activity, test compound was added to the assay plate (top dose 5 μM, 4 fold serial dilution, 8 point dose response). HEK293 cells stably expressing the ligand binding domain of the glucocorticoid receptor were seeded at a density of 40,000 cells/well in the assay plate. The assay plate was then incubated at 37° C., 5% CO2 for 30 minutes. Dexamethasone was added to the assay plate at 1.5 nM final concentration and the assay plate was incubated at 37° C., 5% CO2 for 20 h. After the incubation period, Dual-glo luciferase reagent was added to the assay plate and mixed at room temperature for 20 minutes on an orbital shaker, before reading out on the EnVision plate reader.

[3] = target: Progesterone PR-B receptors (Homo sapiens (Human), UniProt P06401); experiment: PR binding assay; conditions: human breast carcinoma T47D cells, 0.5 nM [3H]Progesterone, 20 hours at 4° C.
Description: PR binding assay: Progesterone PR-B receptors from human breast carcinoma T47D cells were used in modified Na2HPO4/NaH2PO4 buffer pH 7.4. Compounds were screened at a range of doses (Top dose 40 nM, 4 fold serial dilution, 8 point dose response) and dispensed into the assay plate. Supernatant of 1.2×10^5 cells aliquot were added to the assay plate and incubated with 0.5 nM [^3H]Progesterone for 20 hours at 4° C. Membranes were filtered and washed, the filters were then counted to determine [^3H]Progesterone specifically bound. Binding IC50 was determined as the concentration where 50% inhibition of radioligand binding was observed.

[4] = target: Progesterone Receptor (PR)-LBD (Homo sapiens (Human), UniProt P06401); experiment: PR coactivator antagonist assay; assay type: biochemical; conditions: 2.5 nM PR-LBD and coactivator peptide, 10 nM progesterone-induced fluorescence response; read-out: PR antagonism
Description: PR coactivator antagonist assay: Test compound (Top dose 10 μM, 4 fold serial dilution, 8 point dose response) and/or vehicle was incubated with the 2.5 nM Progesterone Receptor (PR)-LBD and coactivator peptide for 30 minutes at RT. Determination of the amount of complex formed was read spectrofluorimetrically (excitation: 337 nm, emission: 520/490 nm). Test compound-induced inhibition of 10 nM progesterone-induced fluorescence response by 50 percent or more (≥50%) indicates receptor antagonist activity.

LNCap cells = experiment: Cell viability assay, LNCap; assay type: cell-based; conditions: Homo sapiens, LNCaP, 144 h, read-out: LNCap (GI50, nM)
In short: (§1)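 Cells seeded overnight at 37 °C, 5% CO2, with a T0 plate read at compound addition; compounds added in DMSO (final 0.1-0.2%) for 6 days. CellTiterGlo luminescence; inhibition calculated relative to day-0 and vehicle signals, giving GI50/IC50 values.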

T47D cells = experiment: Cell viability assay, T47D; assay type: cell-based; conditions: Homo sapiens, T47D, 144 h, read-out: T47D (GI50, nM)
In short: as §1

IEC6 cells = experiment: Cell viability assay, IEC6; assay type: cell-based; conditions: Rattus norvegicus, IEC-6, 144 h, read-out: IEC-6 (IC50, nM)
In short: as §1

Sequence of AR (P10275 whole entry T878A): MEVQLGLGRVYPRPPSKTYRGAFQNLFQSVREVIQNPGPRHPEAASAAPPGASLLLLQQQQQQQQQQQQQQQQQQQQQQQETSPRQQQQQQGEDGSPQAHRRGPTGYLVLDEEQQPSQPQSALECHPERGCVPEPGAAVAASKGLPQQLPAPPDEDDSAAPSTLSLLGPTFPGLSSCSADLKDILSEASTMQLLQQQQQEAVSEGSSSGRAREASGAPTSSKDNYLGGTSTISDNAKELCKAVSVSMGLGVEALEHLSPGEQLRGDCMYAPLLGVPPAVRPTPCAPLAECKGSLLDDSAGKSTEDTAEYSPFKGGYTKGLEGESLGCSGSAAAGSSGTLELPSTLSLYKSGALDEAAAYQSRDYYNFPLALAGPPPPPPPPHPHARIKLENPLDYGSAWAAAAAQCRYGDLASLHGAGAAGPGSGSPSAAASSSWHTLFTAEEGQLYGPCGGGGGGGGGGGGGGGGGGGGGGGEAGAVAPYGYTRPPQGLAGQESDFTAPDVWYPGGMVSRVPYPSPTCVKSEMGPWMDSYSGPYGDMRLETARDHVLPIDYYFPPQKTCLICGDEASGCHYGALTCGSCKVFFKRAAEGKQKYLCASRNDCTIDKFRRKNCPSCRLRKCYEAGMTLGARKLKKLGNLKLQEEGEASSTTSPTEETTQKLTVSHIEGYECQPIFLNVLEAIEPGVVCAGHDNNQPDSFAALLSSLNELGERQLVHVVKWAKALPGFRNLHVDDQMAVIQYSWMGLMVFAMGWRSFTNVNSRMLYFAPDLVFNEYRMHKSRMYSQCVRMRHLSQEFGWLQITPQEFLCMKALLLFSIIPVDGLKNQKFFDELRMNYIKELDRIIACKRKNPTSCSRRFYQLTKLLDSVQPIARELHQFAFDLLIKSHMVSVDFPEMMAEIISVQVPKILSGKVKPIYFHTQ
Sequence of Progesterone Receptor (PR)-LBD (P06401 679-913, species assumed): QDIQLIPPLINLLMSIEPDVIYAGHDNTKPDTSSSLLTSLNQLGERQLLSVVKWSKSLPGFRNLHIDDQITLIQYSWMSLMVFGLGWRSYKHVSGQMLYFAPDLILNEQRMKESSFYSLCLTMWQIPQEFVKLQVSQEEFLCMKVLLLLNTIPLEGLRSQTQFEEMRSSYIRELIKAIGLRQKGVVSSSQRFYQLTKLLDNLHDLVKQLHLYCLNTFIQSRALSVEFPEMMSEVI
Sequence of GR (P04150 whole entry): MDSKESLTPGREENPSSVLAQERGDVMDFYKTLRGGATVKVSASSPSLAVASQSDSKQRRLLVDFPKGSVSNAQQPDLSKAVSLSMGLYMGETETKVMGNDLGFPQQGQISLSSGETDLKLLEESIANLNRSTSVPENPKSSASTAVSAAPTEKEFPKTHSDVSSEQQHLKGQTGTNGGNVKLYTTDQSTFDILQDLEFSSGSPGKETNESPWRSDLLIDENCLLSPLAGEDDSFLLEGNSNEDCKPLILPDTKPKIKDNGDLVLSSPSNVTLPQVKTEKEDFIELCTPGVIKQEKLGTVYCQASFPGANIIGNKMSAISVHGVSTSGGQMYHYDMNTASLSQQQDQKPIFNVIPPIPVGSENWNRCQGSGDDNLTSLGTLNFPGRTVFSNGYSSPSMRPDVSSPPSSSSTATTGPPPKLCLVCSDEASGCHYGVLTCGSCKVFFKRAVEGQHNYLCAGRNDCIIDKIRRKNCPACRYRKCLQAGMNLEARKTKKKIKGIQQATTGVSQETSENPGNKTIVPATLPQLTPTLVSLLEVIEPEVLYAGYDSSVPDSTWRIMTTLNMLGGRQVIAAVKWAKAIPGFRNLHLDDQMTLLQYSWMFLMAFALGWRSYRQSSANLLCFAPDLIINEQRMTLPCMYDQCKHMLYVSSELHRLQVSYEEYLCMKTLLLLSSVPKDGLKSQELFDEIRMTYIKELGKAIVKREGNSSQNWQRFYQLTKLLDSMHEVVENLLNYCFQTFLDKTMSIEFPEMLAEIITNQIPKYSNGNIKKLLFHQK
Sequence of ligand binding domain of the glucocorticoid receptor (P04150 524-758): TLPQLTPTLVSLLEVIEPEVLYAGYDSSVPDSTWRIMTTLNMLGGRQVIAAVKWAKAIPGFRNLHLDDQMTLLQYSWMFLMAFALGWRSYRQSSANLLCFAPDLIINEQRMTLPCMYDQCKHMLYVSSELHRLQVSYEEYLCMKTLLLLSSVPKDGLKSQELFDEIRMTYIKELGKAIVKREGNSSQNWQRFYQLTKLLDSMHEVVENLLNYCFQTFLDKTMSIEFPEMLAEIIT
Sequence of full-length androgen receptor (P10275 whole entry): as the sequence (P10275 whole entry T878A) above, with A878T counted along it
Sequence of Progesterone PR-B receptors (P06401 whole entry): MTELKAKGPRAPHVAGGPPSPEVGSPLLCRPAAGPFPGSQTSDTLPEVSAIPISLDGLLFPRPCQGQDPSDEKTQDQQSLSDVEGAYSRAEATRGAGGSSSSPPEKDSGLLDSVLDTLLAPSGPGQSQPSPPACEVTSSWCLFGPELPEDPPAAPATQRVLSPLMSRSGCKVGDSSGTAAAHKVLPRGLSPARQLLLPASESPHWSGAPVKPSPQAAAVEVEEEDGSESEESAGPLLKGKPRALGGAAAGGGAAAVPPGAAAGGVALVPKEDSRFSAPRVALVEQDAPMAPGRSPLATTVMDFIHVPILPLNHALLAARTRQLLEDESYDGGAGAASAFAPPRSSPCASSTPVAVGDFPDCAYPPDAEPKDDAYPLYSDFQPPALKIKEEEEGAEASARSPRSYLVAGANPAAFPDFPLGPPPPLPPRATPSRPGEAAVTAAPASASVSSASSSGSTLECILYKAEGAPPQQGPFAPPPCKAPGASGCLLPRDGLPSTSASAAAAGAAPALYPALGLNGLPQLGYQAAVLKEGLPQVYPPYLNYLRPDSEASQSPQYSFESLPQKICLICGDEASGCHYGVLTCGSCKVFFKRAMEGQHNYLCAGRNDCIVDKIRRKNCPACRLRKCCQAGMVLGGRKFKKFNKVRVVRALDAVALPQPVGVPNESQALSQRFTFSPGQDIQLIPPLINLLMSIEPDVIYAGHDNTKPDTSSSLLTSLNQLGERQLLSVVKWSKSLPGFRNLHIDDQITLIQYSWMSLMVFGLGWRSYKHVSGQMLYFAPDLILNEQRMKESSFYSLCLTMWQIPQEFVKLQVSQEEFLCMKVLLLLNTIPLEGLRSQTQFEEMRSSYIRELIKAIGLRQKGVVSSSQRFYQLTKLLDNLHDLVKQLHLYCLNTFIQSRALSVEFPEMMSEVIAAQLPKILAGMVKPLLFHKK

Structure (SMILES)	IC50 (AR; cytosol from LnCaP cells, 3H-R1881 1 nM, 4° C. 24 hrs, read-out: AR binding) [µM]	IC50 [1] [µM]	IC50 (GR) [µM]	IC50 [2] [µM]	IC50 [3] [µM]	IC50 [4] [µM]	GI50 (LNCap cells) [nM]	GI50 (T47D cells) [nM]	IC50 (IEC6 cells) [nM]	IC50 (AR) [µM]
CCc1c2c(nc3ccc(OC(=O)N4CCN(C(=O)CCCCCN(C)c5ccc([C@H]6C[C@@]7(C)[C@@H](CC[C@]7(OC(C)=O)C(C)=O)[C@@H]7CCC8=CC(=O)CCC8=C76)cc5)CC4)cc13)-c1cc3c(c(=O)n1C2)COC(=O)[C@]3(O)CC [Compound 3, (S)-4,11-diethyl-4-hydroxy-3,14-dioxo-3,4,12,14-tetrahydro-1H-pyrano[3′,4′:6,7]indolizino[1,2-b]quinolin-9-yl 4-(6-((4-((8S,11R,13S,14S,17R)-17-acetoxy-17-acetyl-13-methyl-3-oxo-2,3,6,7,8,11,12,13,14,15,16,17-dodecahydro-1H-cyclopenta[a]phenanthren-11-yl)phenyl)(methyl)amino)hexanoyl)piperazine-1-carboxylate]	< 0.01	0.01 to 0.5	< 0.01	0.01 to 0.5	< 0.01	< 0.01	10 to 500	10 to 500	501 to 1000	–
CC[C@@]1(O)C(=O)OCc2c1cc1n(c2=O)Cc2cc3c(CN(C)C)c(OC(=O)N4CCN(CCCCCCN(C)c5ccc([C@H]6C[C@@]7(C)[C@@H](CC[C@]7(OC(C)=O)C(C)=O)[C@@H]7CCC8=CC(=O)CCC8=C76)cc5)CC4)ccc3nc2-1 [Compound 5, (S)-10-((dimethylamino)methyl)-4-ethyl-4-hydroxy-3,14-dioxo-3,4,12,14-tetrahydro-1H-pyrano[3′,4′:6,7]indolizino[1,2-b]quinolin-9-yl 4-(6-((4-((8S,11R,13S,14S,17R)-17-acetoxy-17-acetyl-13-methyl-3-oxo-2,3,6,7,8,11,12,13,14,15,16,17-dodecahydro-1H-cyclopenta[a]phenanthren-11-yl)phenyl)(methyl)amino)hexyl)piperazine-1-carboxylate]	–	> 1	< 0.01	0.01 to 0.5	< 0.01	< 0.01	10 to 500	10 to 500	501 to 1000	0.01 to 0.5
